How the values were obtained:
HiBit-BRM fusion protein = biological target: T1, HiBit-BRM fusion protein (Homo sapiens, UniProt P51531); assay: HiBiT-BRM cell-based degradation assay (Nano-Glo HiBiT Lytic Detection, 24 h); conditions: stable HeLa cell line expressing HiBiT-BRM, top dose 30 μM
T1 construct: expressed in transfected cells
Summary of the method: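 Stable HiBiT-BRM HeLa cells treated 24 h with 10-point 3-fold dilutions, top final dose 30 μM, in duplicate. Luminescence read after lytic LgBiT reagent. Percent degradation was normalised to DMSO (high control) and 2 μM reference BRM/BRG1 degrader (low control).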

[1] = biological target: T2, HiBit-BRG1 fusion protein (Homo sapiens, UniProt P51532); assay: HiBiT-BRG1 cell-based degradation assay (Nano-Glo HiBiT Lytic Detection, 24 h); conditions: stable HeLa cell line expressing HiBit-BRG1 and LgBit, top dose 30 μM, read-out: BRG1 HiBit Degradation Maximum (%)
T2 construct: expressed in transfected cells
Summary of the method: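 HeLa cells stably expressing HiBiT-BRG1 plus LgBiT were treated with 10-point 3-fold compound dilutions (top 30 μM final) for 24 h. Lytic Nano-Glo HiBiT luminescence was read. % degradation was normalised between DMSO (high control) and 2 μM of a reference BRM/BRG1 degrader (low control).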

T1 sequence (P51531 whole entry, the tested form may be a part): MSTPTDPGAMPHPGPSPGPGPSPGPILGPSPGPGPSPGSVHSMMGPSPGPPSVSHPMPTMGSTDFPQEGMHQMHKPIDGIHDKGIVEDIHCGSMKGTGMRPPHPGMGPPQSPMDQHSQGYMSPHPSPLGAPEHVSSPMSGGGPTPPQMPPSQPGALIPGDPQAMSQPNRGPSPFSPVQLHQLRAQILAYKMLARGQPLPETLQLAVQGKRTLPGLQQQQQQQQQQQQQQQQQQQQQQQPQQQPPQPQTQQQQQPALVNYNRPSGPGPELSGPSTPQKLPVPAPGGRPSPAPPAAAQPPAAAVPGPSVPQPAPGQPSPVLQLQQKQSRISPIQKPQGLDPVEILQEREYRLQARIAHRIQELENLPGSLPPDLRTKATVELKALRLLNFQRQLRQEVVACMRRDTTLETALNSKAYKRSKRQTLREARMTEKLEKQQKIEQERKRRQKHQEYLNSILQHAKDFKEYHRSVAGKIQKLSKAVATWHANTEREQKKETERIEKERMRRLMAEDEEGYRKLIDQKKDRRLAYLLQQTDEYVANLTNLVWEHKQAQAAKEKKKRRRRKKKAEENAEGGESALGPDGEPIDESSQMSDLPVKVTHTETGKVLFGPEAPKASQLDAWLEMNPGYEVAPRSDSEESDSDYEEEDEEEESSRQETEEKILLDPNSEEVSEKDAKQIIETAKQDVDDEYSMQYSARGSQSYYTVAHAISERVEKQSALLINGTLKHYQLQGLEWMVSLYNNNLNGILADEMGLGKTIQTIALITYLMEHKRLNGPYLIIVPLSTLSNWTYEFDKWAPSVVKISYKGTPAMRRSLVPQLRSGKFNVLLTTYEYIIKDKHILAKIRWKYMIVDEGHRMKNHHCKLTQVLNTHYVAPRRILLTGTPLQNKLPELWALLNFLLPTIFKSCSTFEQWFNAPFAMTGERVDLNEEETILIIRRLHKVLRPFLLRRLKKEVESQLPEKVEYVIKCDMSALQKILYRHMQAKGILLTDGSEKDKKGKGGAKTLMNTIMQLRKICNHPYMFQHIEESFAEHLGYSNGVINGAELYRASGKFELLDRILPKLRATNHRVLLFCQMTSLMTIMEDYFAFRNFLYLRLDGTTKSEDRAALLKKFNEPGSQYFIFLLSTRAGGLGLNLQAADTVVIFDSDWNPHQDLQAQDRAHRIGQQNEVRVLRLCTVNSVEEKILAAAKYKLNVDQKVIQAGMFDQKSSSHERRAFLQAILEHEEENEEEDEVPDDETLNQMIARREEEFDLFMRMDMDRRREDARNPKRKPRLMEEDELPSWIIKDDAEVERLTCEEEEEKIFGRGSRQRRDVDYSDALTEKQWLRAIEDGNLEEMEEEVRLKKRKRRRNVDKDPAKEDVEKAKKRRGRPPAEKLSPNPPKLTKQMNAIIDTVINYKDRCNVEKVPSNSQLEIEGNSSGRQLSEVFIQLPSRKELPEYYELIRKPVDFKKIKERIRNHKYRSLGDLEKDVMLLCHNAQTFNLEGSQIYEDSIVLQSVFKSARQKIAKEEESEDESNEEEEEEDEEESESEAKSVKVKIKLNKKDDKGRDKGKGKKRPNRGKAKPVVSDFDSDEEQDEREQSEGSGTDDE
T2 sequence (P51532 whole entry, the tested form may be a part): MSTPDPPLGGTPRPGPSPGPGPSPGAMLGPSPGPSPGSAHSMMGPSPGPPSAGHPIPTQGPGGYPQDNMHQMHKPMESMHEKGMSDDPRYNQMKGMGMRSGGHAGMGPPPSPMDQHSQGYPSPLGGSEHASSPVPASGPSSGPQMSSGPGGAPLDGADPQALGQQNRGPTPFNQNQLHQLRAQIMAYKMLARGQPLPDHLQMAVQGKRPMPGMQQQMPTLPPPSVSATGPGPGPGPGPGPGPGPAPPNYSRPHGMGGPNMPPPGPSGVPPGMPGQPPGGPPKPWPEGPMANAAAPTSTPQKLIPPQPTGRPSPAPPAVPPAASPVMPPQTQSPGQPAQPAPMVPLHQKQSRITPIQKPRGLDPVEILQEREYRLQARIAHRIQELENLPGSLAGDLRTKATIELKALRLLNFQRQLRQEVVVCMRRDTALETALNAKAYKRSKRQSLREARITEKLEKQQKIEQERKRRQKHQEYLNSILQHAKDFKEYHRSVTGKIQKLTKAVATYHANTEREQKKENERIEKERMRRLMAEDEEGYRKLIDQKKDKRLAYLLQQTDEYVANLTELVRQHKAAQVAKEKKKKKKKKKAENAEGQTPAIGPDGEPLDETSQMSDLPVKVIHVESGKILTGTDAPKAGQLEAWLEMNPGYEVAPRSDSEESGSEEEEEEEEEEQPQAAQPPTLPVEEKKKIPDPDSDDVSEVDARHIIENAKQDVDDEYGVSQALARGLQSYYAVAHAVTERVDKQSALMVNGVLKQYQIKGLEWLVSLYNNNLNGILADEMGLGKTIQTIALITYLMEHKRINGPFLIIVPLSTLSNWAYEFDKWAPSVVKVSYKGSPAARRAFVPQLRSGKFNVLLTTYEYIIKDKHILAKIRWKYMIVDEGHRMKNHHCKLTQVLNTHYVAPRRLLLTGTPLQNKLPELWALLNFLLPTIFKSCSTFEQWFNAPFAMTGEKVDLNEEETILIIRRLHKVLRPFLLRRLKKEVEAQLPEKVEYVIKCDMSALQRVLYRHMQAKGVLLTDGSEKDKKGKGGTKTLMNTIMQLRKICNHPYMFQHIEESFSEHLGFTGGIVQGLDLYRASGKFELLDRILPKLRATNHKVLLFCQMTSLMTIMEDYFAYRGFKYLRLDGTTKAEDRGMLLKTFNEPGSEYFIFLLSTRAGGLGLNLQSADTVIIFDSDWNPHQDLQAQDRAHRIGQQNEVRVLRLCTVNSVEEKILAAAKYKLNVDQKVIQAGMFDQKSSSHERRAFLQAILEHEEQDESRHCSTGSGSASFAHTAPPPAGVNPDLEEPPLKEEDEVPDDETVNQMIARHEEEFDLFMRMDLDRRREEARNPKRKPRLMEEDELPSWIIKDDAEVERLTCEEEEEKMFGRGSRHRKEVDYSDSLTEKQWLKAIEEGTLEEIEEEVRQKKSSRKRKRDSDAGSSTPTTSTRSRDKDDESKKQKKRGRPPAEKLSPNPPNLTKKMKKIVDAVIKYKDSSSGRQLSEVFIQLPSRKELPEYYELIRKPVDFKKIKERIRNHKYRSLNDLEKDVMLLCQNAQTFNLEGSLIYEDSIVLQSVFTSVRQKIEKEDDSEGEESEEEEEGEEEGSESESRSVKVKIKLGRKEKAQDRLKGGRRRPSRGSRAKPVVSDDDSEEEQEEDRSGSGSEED

SMILES	Dmax [1]	BRM HiBit Degradation Maximum (%) (HiBit-BRM fusion protein)
Nc1nnc(-c2ccccc2O)cc1OCC12CC(C(=O)N3CCN(CCCOc4ccc5c(c4)C(=O)N(C4CCC(=O)NC4=O)C5=O)CC3)(C1)C2 (centres unmarked) [Compound 97, 5-(3-(4-(3-(((3-amino-6-(2-hydroxyphenyl)pyridazin-4-yl)oxy)methyl)bicyclo[1.1.1]pentane-1-carbonyl)piperazin-1-yl)propoxy)-2-(2,6-dioxopiperidin-3-yl)isoindoline-1,3-dione; formic acid]	< 50%	C (“C” indicates maximum degradation < 50%)
Cc1ncsc1-c1ccc(CNC(=O)[C@@H]2C[C@@H](O)CN2C(=O)[C@@H](NC(=O)COCCOCCNC(=O)C23CC(COc4cc(-c5ccccc5O)nnc4N)(C2)C3)C(C)(C)C)cc1 [Compound 68, (2S,4R)-1-((S)-1-(3-(((3-amino-6-(2-hydroxyphenyl)pyridazin-4-yl)oxy)methyl)bicyclo[1.1.1]pentan-1-yl)-12-(tert-butyl)-1,10-dioxo-5,8-dioxa-2,11-diazatridecan-13-oyl)-4-hydroxy-N-(4-(4-methylthiazol-5-yl)benzyl)pyrrolidine-2-carboxamide; formic acid]	< 50%	C (“C” indicates maximum degradation < 50%)
Cc1ncsc1-c1ccc(CNC(=O)[C@@H]2C[C@@H](O)CN2C(=O)[C@@H](NC(=O)CCC(=O)NC23CC(CCOc4cc(-c5ccccc5O)nnc4N)(C2)C3)C(C)(C)C)cc1 [Compound 42, N1-(3-(2-((3-amino-6-(2-hydroxyphenyl)pyridazin-4-yl)oxy)ethyl)bicyclo[1.1.1]pentan-1-yl)-N4-((S)-1-((2S,4R)-4-hydroxy-2-((4-(4-methylthiazol-5-yl)benzyl)carbamoyl)pyrrolidin-1-yl)-3,3-dimethyl-1-oxobutan-2-yl)succinamide]	< 50%	C (“C” indicates maximum degradation < 50%)
CN(CCNC(=O)COc1ccc2c(c1)C(=O)N(C1CCC(=O)NC1=O)C2=O)CCNC(=O)C12CC(COc3cc(-c4ccccc4O)nnc3N)(C1)C2 (centres unmarked) [Compound 76, 3-(((3-amino-6-(2-hydroxyphenyl)pyridazin-4-yl)oxy)methyl)-N-(2-((2-(2-((2-(2,6-dioxopiperidin-3-yl)-1,3-dioxoisoindolin-5-yl)oxy)acetamido)ethyl)(methyl)amino)ethyl)bicyclo[1.1.1]pentane-1-carboxamide]	< 50%	C (“C” indicates maximum degradation < 50%)
Nc1nnc(-c2ccccc2O)cc1OCCC12CC(NC(=O)CCOCCOCCOc3ccc4c(c3)C(=O)N(C3CCC(=O)NC3=O)C4=O)(C1)C2 (centres unmarked) [Compound 31, N-(3-(2-((3-amino-6-(2-hydroxyphenyl)pyridazin-4-yl)oxy)ethyl)bicyclo[1.1.1]pentan-1-yl)-3-(2-(2-((2-(2,6-dioxopiperidin-3-yl)-1,3-dioxoisoindolin-5-yl)oxy)ethoxy)ethoxy)propanamide]	< 50%	C (“C” indicates maximum degradation < 50%)
Nc1nnc(-c2ccccc2O)cc1OCC12CC(C(=O)N3CC(COc4ccc5c(c4)C(=O)N(C4CCC(=O)NC4=O)C5=O)C3)(C1)C2 (centres unmarked) [Compound 86, 5-((1-(3-(((3-amino-6-(2-hydroxyphenyl)pyridazin-4-yl)oxy)methyl)bicyclo[1.1.1]pentane-1-carbonyl)azetidin-3-yl)methoxy)-2-(2,6-dioxopiperidin-3-yl)isoindoline-1,3-dione]	> 50%	B (“B” indicates maximum degradation ≥ 50%)

More lines, main results first:

Dmax [1]	SMILES	BRM HiBit Degradation Maximum (%) (HiBit-BRM fusion protein)
< 50%	Nc1nnc(-c2ccccc2O)cc1OCC12CC(CNC(=O)CCCCCCCOc3cccc4c3C(=O)N(C3CCC(=O)NC3=O)C4=O)(C1)C2 (centres unmarked) [Compound 5, N-[[3-([[3-amino-6-(2-hydroxyphenyl)pyridazin-4-yl]oxy]methyl)bicyclo[1.1.1]pentan-1-yl]methyl]-8-[[2-(2,6-dioxopiperidin-3-yl)-1,3-dioxoisoindol-4-yl]oxy]octanamide]	C (“C” indicates maximum degradation < 50%)
< 50%	Nc1nnc(-c2ccccc2O)cc1OCC12CC(CNC(=O)CCOCCOCCNc3ccc4c(c3)C(=O)N(C3CCC(=O)NC3=O)C4=O)(C1)C2 (centres unmarked) [Compound 6, N-[[3-([[3-amino-6-(2-hydroxyphenyl)pyridazin-4-yl]oxy]methyl)bicyclo[1.1.1]pentan-1-yl]methyl]-3-[2-(2-[[2-(2,6-dioxopiperidin-3-yl)-1,3-dioxoisoindol-5-yl]amino]ethoxy)ethoxy]propanamide]	C (“C” indicates maximum degradation < 50%)
< 50%	Nc1nnc(-c2ccccc2O)cc1OCC12CC(CNC(=O)CCCCCCCCCCNc3cccc4c3C(=O)N(C3CCC(=O)NC3=O)C4=O)(C1)C2 (centres unmarked) [Compound 8, N-[[3-([[3-amino-6-(2-hydroxyphenyl)pyridazin-4-yl]oxy]methyl)bicyclo[1.1.1]pentan-1-yl]methyl]-11-[[2-(2,6-dioxopiperidin-3-yl)-1,3-dioxoisoindol-4-yl]amino]undecanamide]	C (“C” indicates maximum degradation < 50%)
< 50%	Nc1nnc(-c2ccccc2O)cc1OCCC12CC(NC(=O)CCCCCCCOc3cccc4c3C(=O)N(C3CCC(=O)NC3=O)C4=O)(C1)C2 (centres unmarked) [Compound 21, N-[3-(2-[[3-amino-6-(2-hydroxyphenyl)pyridazin-4-yl]oxy]ethyl)bicyclo[1.1.1]pentan-1-yl]-8-[[2-(2,6-dioxopiperidin-3-yl)-1,3-dioxoisoindol-4-yl]oxy]octanamide]	C (“C” indicates maximum degradation < 50%)
< 50%	Nc1nnc(-c2ccccc2O)cc1OCCC12CC(NC(=O)CCCCOc3cccc4c3C(=O)N(C3CCC(=O)NC3=O)C4=O)(C1)C2 (centres unmarked) [Compound 19, N-(3-(2-((3-amino-6-(2-hydroxyphenyl)pyridazin-4-yl)oxy)ethyl)bicyclo[1.1.1]pentan-1-yl)-5-((2-(2,6-dioxopiperidin-3-yl)-1,3-dioxoisoindolin-4-yl)oxy)pentanamide]	C (“C” indicates maximum degradation < 50%)
< 50%	Nc1nnc(-c2ccccc2O)cc1OCC12CC(CNC(=O)C3CC3CNC(=O)COc3cccc4c3C(=O)N(C3CCC(=O)NC3=O)C4=O)(C1)C2 (centres unmarked) [Compound 12, N-[[3-([[3-amino-6-(2-hydroxyphenyl)pyridazin-4-yl]oxy]methyl)bicyclo[1.1.1]pentan-1-yl]methyl]-2-[(2-[[2-(2,6-dioxopiperidin-3-yl)-1,3-dioxoisoindol-4-yl]oxy]acetamido)methyl]cyclopropane-1-carboxamide]	C (“C” indicates maximum degradation < 50%)
< 50%	Nc1nnc(-c2ccccc2O)cc1OCC12CC(C(=O)NCCOc3ccc4c(c3)C(=O)N(C3CCC(=O)NC3=O)C4=O)(C1)C2 (centres unmarked) [Compound 55, 3-(((3-amino-6-(2-hydroxyphenyl)pyridazin-4-yl)oxy)methyl)-N-(2-((2-(2,6-dioxopiperidin-3-yl)-1,3-dioxoisoindolin-5-yl)oxy)ethyl)bicyclo[1.1.1]pentane-1-carboxamide]	C (“C” indicates maximum degradation < 50%)

From US12552775B2, “Compounds and uses thereof” (Foghorn Therapeutics Inc., priority 2020, dated 2026)
